Measured values published in PMC8213057, “Targeting ALK2: An Open Science Approach to Developing Therapeutics for the Treatment of Diffuse Intrinsic Pontine Glioma” (Journal of Medicinal Chemistry, 2020).
Where “and” joins values, the source holds several entries; their conditions need not be identical. Identical values can stand only once.

Assays:
[1] = system: ALK5/TGFBR1
[2] = target: T1, Aurora A (Homo sapiens, UniProt O14965); conditions: 1 μM; Run 1, Run 2
T1 sequence (O14965 1-403): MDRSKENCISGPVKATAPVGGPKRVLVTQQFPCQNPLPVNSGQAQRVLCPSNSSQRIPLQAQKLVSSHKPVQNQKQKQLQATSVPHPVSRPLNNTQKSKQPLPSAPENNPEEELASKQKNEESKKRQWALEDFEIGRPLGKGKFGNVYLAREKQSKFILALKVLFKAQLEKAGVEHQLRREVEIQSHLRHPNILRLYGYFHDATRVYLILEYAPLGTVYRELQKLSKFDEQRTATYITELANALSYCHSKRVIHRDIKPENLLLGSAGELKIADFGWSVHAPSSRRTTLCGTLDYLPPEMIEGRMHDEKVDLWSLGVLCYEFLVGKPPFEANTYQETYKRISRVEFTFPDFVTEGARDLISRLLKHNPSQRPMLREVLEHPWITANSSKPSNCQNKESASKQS

[3] = target: CAMK2g (Homo sapiens, UniProt Q13555); conditions: 1 μM; Run 1, Run 2
Chain of CAMK2g (Q13555 whole entry): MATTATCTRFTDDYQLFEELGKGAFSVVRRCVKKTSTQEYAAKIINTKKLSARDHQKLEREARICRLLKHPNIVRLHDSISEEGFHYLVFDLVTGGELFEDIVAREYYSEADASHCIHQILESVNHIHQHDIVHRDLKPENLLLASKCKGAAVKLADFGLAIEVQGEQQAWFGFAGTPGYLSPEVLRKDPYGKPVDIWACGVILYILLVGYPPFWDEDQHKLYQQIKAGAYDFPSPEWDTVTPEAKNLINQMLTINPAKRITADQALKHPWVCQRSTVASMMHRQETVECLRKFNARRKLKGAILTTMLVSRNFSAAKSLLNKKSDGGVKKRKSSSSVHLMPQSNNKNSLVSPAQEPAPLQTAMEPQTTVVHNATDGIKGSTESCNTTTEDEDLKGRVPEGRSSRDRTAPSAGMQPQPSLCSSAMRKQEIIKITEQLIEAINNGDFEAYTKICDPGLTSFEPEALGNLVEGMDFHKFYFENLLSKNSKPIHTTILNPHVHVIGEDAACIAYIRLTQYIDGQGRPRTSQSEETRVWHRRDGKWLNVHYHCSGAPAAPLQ

[4] = target: T2, BMX/ETK (Homo sapiens, UniProt P51813); assay: biochemical; conditions: read-out: % enzyme activity, 1 μM; Run 1, Run 2
T2 sequence (P51813 1-675): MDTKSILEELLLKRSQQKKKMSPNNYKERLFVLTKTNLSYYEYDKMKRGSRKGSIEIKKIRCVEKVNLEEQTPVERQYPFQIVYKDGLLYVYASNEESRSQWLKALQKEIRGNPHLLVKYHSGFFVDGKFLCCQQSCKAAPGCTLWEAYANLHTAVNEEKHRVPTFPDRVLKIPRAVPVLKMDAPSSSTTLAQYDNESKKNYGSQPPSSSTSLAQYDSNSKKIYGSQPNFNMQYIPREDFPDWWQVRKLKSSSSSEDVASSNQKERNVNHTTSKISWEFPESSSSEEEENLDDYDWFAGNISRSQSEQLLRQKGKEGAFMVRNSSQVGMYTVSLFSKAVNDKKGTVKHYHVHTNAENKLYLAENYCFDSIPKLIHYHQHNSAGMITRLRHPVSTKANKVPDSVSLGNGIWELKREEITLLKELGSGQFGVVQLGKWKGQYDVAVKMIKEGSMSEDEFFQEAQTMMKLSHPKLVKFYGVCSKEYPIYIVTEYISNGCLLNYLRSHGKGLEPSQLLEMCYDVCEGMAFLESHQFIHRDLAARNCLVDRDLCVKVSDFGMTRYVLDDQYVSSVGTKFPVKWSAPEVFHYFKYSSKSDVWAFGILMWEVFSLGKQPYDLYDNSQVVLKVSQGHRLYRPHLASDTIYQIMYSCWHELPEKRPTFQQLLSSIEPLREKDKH

[5] = target: T3, EPHB4 (Homo sapiens, UniProt P54760); assay: biochemical; conditions: read-out: % enzyme activity, 1 μM; Run 1, Run 2
T3 sequence (P54760 16-987): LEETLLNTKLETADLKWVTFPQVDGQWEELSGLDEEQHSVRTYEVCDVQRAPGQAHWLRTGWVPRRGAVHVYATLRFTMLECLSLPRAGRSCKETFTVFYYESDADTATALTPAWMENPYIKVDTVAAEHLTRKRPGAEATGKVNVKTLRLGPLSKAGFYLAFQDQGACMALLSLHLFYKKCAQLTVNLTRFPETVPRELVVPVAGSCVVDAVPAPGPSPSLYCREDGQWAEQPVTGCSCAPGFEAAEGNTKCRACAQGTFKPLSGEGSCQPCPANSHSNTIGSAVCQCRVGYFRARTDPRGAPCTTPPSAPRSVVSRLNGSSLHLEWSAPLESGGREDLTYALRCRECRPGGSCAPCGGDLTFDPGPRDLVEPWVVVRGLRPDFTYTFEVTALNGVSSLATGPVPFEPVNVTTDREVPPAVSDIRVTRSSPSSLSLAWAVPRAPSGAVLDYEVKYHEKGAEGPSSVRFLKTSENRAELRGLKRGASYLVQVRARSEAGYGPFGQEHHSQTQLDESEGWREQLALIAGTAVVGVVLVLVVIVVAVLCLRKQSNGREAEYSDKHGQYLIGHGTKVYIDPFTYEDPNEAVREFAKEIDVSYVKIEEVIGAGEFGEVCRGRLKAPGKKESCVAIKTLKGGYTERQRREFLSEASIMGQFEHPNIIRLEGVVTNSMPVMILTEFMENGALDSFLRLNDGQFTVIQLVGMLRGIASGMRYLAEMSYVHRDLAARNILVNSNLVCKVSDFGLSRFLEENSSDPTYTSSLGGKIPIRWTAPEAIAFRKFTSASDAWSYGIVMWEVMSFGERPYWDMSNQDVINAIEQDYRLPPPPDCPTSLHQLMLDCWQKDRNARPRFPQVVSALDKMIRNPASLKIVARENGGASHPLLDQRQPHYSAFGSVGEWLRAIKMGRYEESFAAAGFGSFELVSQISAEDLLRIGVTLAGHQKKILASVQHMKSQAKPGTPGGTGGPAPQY

[6] = target: T4, STK22D/TSSK1 (Homo sapiens, UniProt Q9BXA7); assay: biochemical; conditions: read-out: % enzyme activity, 1 μM; Run 1, Run 2
T4 sequence (Q9BXA7 1-367): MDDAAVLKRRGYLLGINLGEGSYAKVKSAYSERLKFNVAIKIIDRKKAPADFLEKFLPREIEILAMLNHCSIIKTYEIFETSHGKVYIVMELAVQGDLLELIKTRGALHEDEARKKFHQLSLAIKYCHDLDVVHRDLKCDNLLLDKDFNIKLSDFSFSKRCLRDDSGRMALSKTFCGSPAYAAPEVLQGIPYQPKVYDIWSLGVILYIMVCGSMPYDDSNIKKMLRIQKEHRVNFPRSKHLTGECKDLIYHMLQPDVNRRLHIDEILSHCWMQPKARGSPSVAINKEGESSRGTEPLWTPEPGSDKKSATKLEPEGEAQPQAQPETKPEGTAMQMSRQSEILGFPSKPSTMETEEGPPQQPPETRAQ

Structure (SMILES)	% enzyme activity at 1 μM [1]	% enzyme activity [2]	% enzyme activity [3]	remaining activity at 1 µM [4]	remaining activity at 1 µM [5]	remaining activity at 1 µM [6]
COc1cc(-c2cncc(-c3ccc(N4CCN(C)CC4)cc3)c2C)cc(F)c1C(N)=O [Compound 26a, 2-Fluoro-6-methoxy-4-(4-methyl-5-(4-(4-methylpiperazin-1-yl)phenyl)pyridin-3-yl)benzamide]	82.5% and 82.3%	97.24%	100.65%	103%	94.7%	97.5%
COc1cc(-c2cncc(-c3ccc(N4C[C@@H](C)N(C)[C@@H](C)C4)cc3)c2C)cc(F)c1C(N)=O [Compound 26c, 2-Fluoro-6-methoxy-4-(4-methyl-5-(4-((3R,5S)-3,4,5-trimethylpiperazin-1-yl)phenyl)pyridin-3-yl)benzamide]	97.2% and 96.6%	101.37%	107.66%	102%	91.5%	101%
